Molecular target: T1, serine/threonine kinase (ssSTK) (Streptococcus suis, UniProt A0A0H3MXV7)
T1 construct: gene SSUBM407_0373; 6 × his-tagged kinase domain of ssSTK (ssSTK^KD, pET28a-stk^KD) is the wild-type expression construct described; the assay text says 'purified ssSTK'
Experiment: Kinase-Glo ATP consumption assay of autophosphorylation; confirmed by anti-P-Thr western blot
Type: biochemical

T1 sequence (A0A0H3MXV7 entry or part of it): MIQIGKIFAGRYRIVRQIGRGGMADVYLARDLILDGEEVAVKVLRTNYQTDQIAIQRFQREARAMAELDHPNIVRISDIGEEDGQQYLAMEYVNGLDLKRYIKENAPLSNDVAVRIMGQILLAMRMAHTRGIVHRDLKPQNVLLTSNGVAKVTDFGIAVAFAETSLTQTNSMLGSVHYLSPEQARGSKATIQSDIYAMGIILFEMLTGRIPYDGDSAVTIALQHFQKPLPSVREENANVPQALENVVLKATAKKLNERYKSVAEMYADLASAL

Row | Structure (SMILES) | IC50
1 | c1cc(Nc2cc(C3CC3)[nH]n2)nc(Nc2ccc3[nH]cnc3c2)n1 [APY29] | 10.1 µM
2 | O=C(Nc1c[nH]nc1-c1nc2cc(CN3CCOCC3)ccc2[nH]1)NC1CC1 [AT9283] | 10.6 µM
3 | COC(=O)[C@@]1(O)C[C@H]2O[C@]1(C)n1c3ccccc3c3c4c(c5c6ccccc6n2c5c31)C(=O)NC4 [K252a] | 13.8 µM
4 | CN[C@@H]1C[C@H]2O[C@@](C)([C@@H]1OC)n1c3ccccc3c3c4c(c5c6ccccc6n2c5c31)C(=O)NC4 [Staurosporine] | 8.97 µM

Reference: paper PMC9478340, “Inhibitors targeting the autophosphorylation of serine/threonine kinase of Streptococcus suis show potent antimicrobial activity” (Frontiers in Microbiology, 2022)
